Where two headings read alike, the source gives them in different places.
Conditions: 40° C./75% RH open, 60° C. closed
Method: Studies were conducted to assess the stability of tenofovir alafenamide hemifumarate in the presence of (a) emtricitabine, and (b) emtricitabine and rilpivirine HCl.

## CC(C)OC(=O)[C@H](C)N[P@](=O)(CO[C@H](C)Cn1cnc2c(N)ncnc21)Oc1ccccc1 [tenofovir alafenamide hemifumarate]
In the presence of both emtricitabine and rilpivirine HCl
  rate of degradation of tenofovir alafenamide hemifumarate: further increased
In the presence of emtricitabine
  rate of degradation of tenofovir alafenamide hemifumarate: increased
